Results as given in PubChem BioAssay AID1259407 (Chemical Carcinogenesis Research Information System (CCRIS), 2018).
Calls of active or inactive are those of the source. How the calls were made is not given here.

System: CCRIS mutagenicity, Ames/micronucleus/aberration tests
Test: CCRIS mutagenicity studies
[1] = Test System: AMES SALMONELLA TYPHIMURIUM, Strain/Indicator: TA98, Metabolic Activation: NONE, Method: STANDARD PLATE
[2] = Test System: AMES SALMONELLA TYPHIMURIUM, Strain/Indicator: TA98, Metabolic Activation: RAT, LIVER, S-9, PCB, Method: STANDARD PLATE
[3] = Test System: AMES SALMONELLA TYPHIMURIUM, Strain/Indicator: TA100, Metabolic Activation: NONE, Method: STANDARD PLATE
[4] = Test System: AMES SALMONELLA TYPHIMURIUM, Strain/Indicator: TA100, Metabolic Activation: RAT, LIVER, S-9, PCB, Method: STANDARD PLATE

Cc1c2ccccc2cc2ccccc12
mutagenic call (Test System: AMES SALMONELLA TYPHIMURIUM, Strain/Indicator: TA97, Metabolic Activation: NONE, Method: STANDARD PLATE): inactive; negative | mutagenic call (Test System: AMES SALMONELLA TYPHIMURIUM, Strain/Indicator: TA97, Metabolic Activation: RAT, LIVER, S-9, PCB, Method: STANDARD PLATE): active; positive | mutagenic call [1]: inactive; negative | mutagenic call (Test System: AMES SALMONELLA TYPHIMURIUM, Strain/Indicator: TA98, Metabolic Activation: RAT, LIVER, S-9, AROCLOR 1254, Method: STANDARD PLATE): active; positive | mutagenic call [2]: active; positive | mutagenic call [3]: inactive; negative | mutagenic call (Test System: AMES SALMONELLA TYPHIMURIUM, Strain/Indicator: TA100, Metabolic Activation: RAT, LIVER, S-9, AROCLOR 1254, Method: STANDARD PLATE): inactive; negative | mutagenic call [4]: active; positive

CO[C@]1(CC[C@@H](C)CO[C@@H]2O[C@H](CO)[C@@H](O)[C@H](O)[C@H]2O)O[C@H]2C[C@H]3[C@@H]4CC=C5C[C@@H](O[C@@H]6O[C@H](CO)[C@@H](O)[C@H](O[C@@H]7O[C@H](CO)[C@@H](O)[C@H](O)[C@H]7O)C6O[C@@H]6O[C@@H](C)[C@H](O)[C@@H](O)[C@H]6O)CC[C@]5(C)[C@H]4CC[C@]3(C)[C@H]2[C@@H]1C (some centres undefined)
mutagenic call [1]: inactive; negative | mutagenic call (Test System: AMES SALMONELLA TYPHIMURIUM, Strain/Indicator: TA98, Metabolic Activation: RAT, LIVER, S-9, PHENOBARBITAL, Method: STANDARD PLATE): inactive; negative | mutagenic call [3]: inactive; negative | mutagenic call (Test System: AMES SALMONELLA TYPHIMURIUM, Strain/Indicator: TA100, Metabolic Activation: RAT, LIVER, S-9, PHENOBARBITAL, Method: STANDARD PLATE): inactive; negative

CC(Br)C(Br)CCl (centres undefined)
mutagenic call (Test System: AMES SALMONELLA TYPHIMURIUM, Strain/Indicator: TA100, Metabolic Activation: RAT, LIVER, MICROSOMES, PHENOBARBITAL, Method: PREINCUBATION): active; positive | mutagenic call (Test System: AMES SALMONELLA TYPHIMURIUM, Strain/Indicator: TA100, Metabolic Activation: RAT, LIVER, MICROSOMES, Method: PREINCUBATION): active; positive

COC(=O)c1ccccc1O
mutagenic call (Test System: AMES SALMONELLA TYPHIMURIUM, Strain/Indicator: TA98, Metabolic Activation: GUINEA PIG, LIVER, S-9, PCB, Method: PREINCUBATION): inactive; negative | mutagenic call (Test System: AMES SALMONELLA TYPHIMURIUM, Strain/Indicator: TA98, Metabolic Activation: HAMSTER, LIVER, S-9, AROCLOR 1254 (30%), Method: PREINCUBATION): inactive; negative | mutagenic call (Test System: AMES SALMONELLA TYPHIMURIUM, Strain/Indicator: TA98, Metabolic Activation: HAMSTER, LIVER, S-9, AROCLOR 1254 (50%), Method: PREINCUBATION): inactive; negative | mutagenic call (Test System: AMES SALMONELLA TYPHIMURIUM, Strain/Indicator: TA98, Metabolic Activation: HAMSTER, LIVER, S-9, PCB, Method: PREINCUBATION): active; positive | mutagenic call (Test System: AMES SALMONELLA TYPHIMURIUM, Strain/Indicator: TA98, Metabolic Activation: MOUSE, LIVER, S-9, PCB, Method: PREINCUBATION): inactive; negative | mutagenic call (Test System: AMES SALMONELLA TYPHIMURIUM, Strain/Indicator: TA98, Metabolic Activation: NONE, Method: PREINCUBATION): inactive; negative | mutagenic call (Test System: AMES SALMONELLA TYPHIMURIUM, Strain/Indicator: TA98, Metabolic Activation: RAT, LIVER, S-9, AROCLOR 1254 (30%), Method: PREINCUBATION): inactive; negative | mutagenic call (Test System: AMES SALMONELLA TYPHIMURIUM, Strain/Indicator: TA98, Metabolic Activation: RAT, LIVER, S-9, AROCLOR 1254 (50%), Method: PREINCUBATION): inactive; negative | mutagenic call (Test System: AMES SALMONELLA TYPHIMURIUM, Strain/Indicator: TA98, Metabolic Activation: RAT, LIVER, S-9, PCB, Method: PREINCUBATION): inactive; negative | mutagenic call (Test System: AMES SALMONELLA TYPHIMURIUM, Strain/Indicator: TA100, Metabolic Activation: GUINEA PIG, LIVER, S-9, PCB, Method: PREINCUBATION): inactive; negative | mutagenic call (Test System: AMES SALMONELLA TYPHIMURIUM, Strain/Indicator: TA100, Metabolic Activation: HAMSTER, LIVER, S-9, AROCLOR 1254 (30%), Method: PREINCUBATION): inactive; negative | mutagenic call (Test System: AMES SALMONELLA TYPHIMURIUM, Strain/Indicator: TA100, Metabolic Activation: HAMSTER, LIVER, S-9, AROCLOR 1254 (50%), Method: PREINCUBATION): inactive; negative | mutagenic call (Test System: AMES SALMONELLA TYPHIMURIUM, Strain/Indicator: TA100, Metabolic Activation: HAMSTER, LIVER, S-9, PCB, Method: PREINCUBATION): active; positive | mutagenic call (Test System: AMES SALMONELLA TYPHIMURIUM, Strain/Indicator: TA100, Metabolic Activation: MOUSE, LIVER, S-9, PCB, Method: PREINCUBATION): inactive; negative | mutagenic call (Test System: AMES SALMONELLA TYPHIMURIUM, Strain/Indicator: TA100, Metabolic Activation: NONE, Method: PREINCUBATION): inactive; negative | mutagenic call (Test System: AMES SALMONELLA TYPHIMURIUM, Strain/Indicator: TA100, Metabolic Activation: RAT, LIVER, S-9, AROCLOR 1254 (30%), Method: PREINCUBATION): inactive; negative | mutagenic call (Test System: AMES SALMONELLA TYPHIMURIUM, Strain/Indicator: TA100, Metabolic Activation: RAT, LIVER, S-9, AROCLOR 1254 (50%), Method: PREINCUBATION): inactive; negative | mutagenic call (Test System: AMES SALMONELLA TYPHIMURIUM, Strain/Indicator: TA100, Metabolic Activation: RAT, LIVER, S-9, PCB, Method: PREINCUBATION): inactive; negative | mutagenic call (Test System: AMES SALMONELLA TYPHIMURIUM, Strain/Indicator: TA1535, Metabolic Activation: HAMSTER, LIVER, S-9, AROCLOR 1254 (30%), Method: PREINCUBATION): inactive; negative | mutagenic call (Test System: AMES SALMONELLA TYPHIMURIUM, Strain/Indicator: TA1535, Metabolic Activation: HAMSTER, LIVER, S-9, AROCLOR 1254 (50%), Method: PREINCUBATION): inactive; negative | mutagenic call (Test System: AMES SALMONELLA TYPHIMURIUM, Strain/Indicator: TA1535, Metabolic Activation: NONE, Method: PREINCUBATION): inactive; negative | mutagenic call (Test System: AMES SALMONELLA TYPHIMURIUM, Strain/Indicator: TA1535, Metabolic Activation: RAT, LIVER, S-9, AROCLOR 1254 (30%), Method: PREINCUBATION): inactive; negative | mutagenic call (Test System: AMES SALMONELLA TYPHIMURIUM, Strain/Indicator: TA1535, Metabolic Activation: RAT, LIVER, S-9, AROCLOR 1254 (50%), Method: PREINCUBATION): inactive; negative | mutagenic call (Test System: AMES SALMONELLA TYPHIMURIUM, Strain/Indicator: TA1537, Metabolic Activation: HAMSTER, LIVER, S-9, AROCLOR 1254 (30%), Method: PREINCUBATION): inactive; negative | mutagenic call (Test System: AMES SALMONELLA TYPHIMURIUM, Strain/Indicator: TA1537, Metabolic Activation: HAMSTER, LIVER, S-9, AROCLOR 1254 (50%), Method: PREINCUBATION): inactive; negative | mutagenic call (Test System: AMES SALMONELLA TYPHIMURIUM, Strain/Indicator: TA1537, Metabolic Activation: NONE, Method: PREINCUBATION): inactive; negative | mutagenic call (Test System: AMES SALMONELLA TYPHIMURIUM, Strain/Indicator: TA1537, Metabolic Activation: RAT, LIVER, S-9, AROCLOR 1254 (30%), Method: PREINCUBATION): inactive; negative | mutagenic call (Test System: AMES SALMONELLA TYPHIMURIUM, Strain/Indicator: TA1537, Metabolic Activation: RAT, LIVER, S-9, AROCLOR 1254 (50%), Method: PREINCUBATION): inactive; negative

CC(C)(C)c1ccc(/C=C/c2ccc(N)cc2)cc1
mutagenic call [1]: inactive; negative | mutagenic call (Test System: AMES SALMONELLA TYPHIMURIUM, Strain/Indicator: TA98, Metabolic Activation: RAT, LIVER, S-9, AROCLOR, Method: STANDARD PLATE): inactive; negative | mutagenic call [3]: inactive; negative | mutagenic call (Test System: AMES SALMONELLA TYPHIMURIUM, Strain/Indicator: TA100, Metabolic Activation: RAT, LIVER, S-9, AROCLOR, Method: STANDARD PLATE): inactive; negative

CC(=O)Nc1ccc(S(=O)(=O)c2ccc(NC(C)=O)cc2)cc1
mutagenic call [1]: inactive; negative | mutagenic call [2]: inactive; negative | mutagenic call [3]: inactive; negative | mutagenic call [4]: inactive; negative

[N-]=[N+]=NC[C@@H](O)[C@H](O)[C@H](O)[C@@H](O)CO
mutagenic call (Test System: AMES SALMONELLA TYPHIMURIUM, Strain/Indicator: TA1535, Metabolic Activation: NONE, Method: STANDARD PLATE): active; positive

Nc1cccc2cccc(N)c12
mutagenic call (Test System: AMES SALMONELLA TYPHIMURIUM, Strain/Indicator: TA98, Metabolic Activation: RAT LIVER, CYTOSOL, AROCLOR 1254, Method: STANDARD PLATE): inactive; negative | mutagenic call (Test System: AMES SALMONELLA TYPHIMURIUM, Strain/Indicator: TA98, Metabolic Activation: RAT LIVER, MICROSOMES, AROCLOR 1254, Method: STANDARD PLATE): active; positive

C[N+](C)(C)CC1CO1 (centres undefined)
mutagenic call (Test System: UDS RAT HEPATOCYTES, Strain/Indicator: THY INCORP, Metabolic Activation: NONE): active; positive
